Results reported in USRE42013E1, “Macrocyclic modulators of the ghrelin receptor” (Tranzyme Pharma Inc., priority 2003, dated 2010).
pEC50, pKi: −log10 of the molar value. Read-outs that look alike come from different tables or passages of the source.

Tests used:
[1] = from CCC[C@@H](C(=O)N(C)[C@H](C)C(=O)N[C@H](Cc1ccccc1)C(=O)O)N(C[C@@H](C)Oc1ccccc1CCCN)C(=O)OC(C)(C)C; amide bond; DEPBT; THF; 25.0 mM; 25.0 °C; 16.0 h
[2] = biological target: T1, human ghrelin receptor (hGHS-R1a) (Homo sapiens, UniProt Q92847); details: Table 4; functional (agonist) activity at human ghrelin receptor; TFA salts unless otherwise noted
T1 sequence (Q92847 whole entry): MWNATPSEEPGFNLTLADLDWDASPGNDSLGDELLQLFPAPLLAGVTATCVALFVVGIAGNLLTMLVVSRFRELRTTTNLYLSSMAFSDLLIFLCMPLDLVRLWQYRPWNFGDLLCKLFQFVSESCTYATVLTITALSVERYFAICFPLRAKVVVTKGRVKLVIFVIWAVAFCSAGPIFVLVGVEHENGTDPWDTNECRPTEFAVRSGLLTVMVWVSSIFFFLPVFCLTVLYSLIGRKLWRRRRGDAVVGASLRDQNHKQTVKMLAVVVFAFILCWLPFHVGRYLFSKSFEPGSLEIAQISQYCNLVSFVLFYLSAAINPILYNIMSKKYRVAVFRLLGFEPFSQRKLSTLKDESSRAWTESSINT
Source text: (§1) B. Aequorin Functional Assay (Ghrelin Receptor)
(§2) This cell line is typically constructed by transfection of the human ghrelin receptor into CHO-K1 cells co-expressing Gα16 and the mitochondrially targeted Aequorin (Ref #ES-WT-A5). • 1. […] Assay buffer: DMEM (Dulbecco's Modified Eagles Medium) containing 0.1% BSA (bovine serum albumin; pH 7.0). • 3. Coelenterazine (Molecular Probes, Leiden, The Netherlands). Final test concentrations (N=8) for compounds of the invention: 10, 1, 0.3, 0.1, 0.03, 0.01, 0.003, 0.001 μM. Compound Handling
(§3) Assay plates were then prepared by appropriate dilution in DMEM medium containing 0.1% BSA. Under these conditions, the maximal final DMSO concentration in the assay was <0.6%.
(§4) AequoScreen™ cells were collected from culture plates with Ca^2+ and Mg^2+-free phosphate buffered saline (PBS) supplemented with 5 mM EDTA, pelleted for 2 min at 1000×g, re-suspended in DMEM—Ham's F12 containing 0.1% BSA at a density of 5×10^6 cells/mL, and incubated O/N at rt in the presence of 5 μM coelenterazinc. After loading, cells were diluted with assay buffer to a concentration of 5×10^5 cells/mL.
(§5) For agonist testing, 50 μL of the cell suspension was mixed with 50 μL of the appropriate concentration of test compound or ghrelin (reference agonist) in 96-well plates (duplicate samples). Ghrelin (reference agonist) was tested at several concentrations concurrently with the test compounds in order to validate the experiment. The emission of light resulting from receptor activation in response to ghrelin or test compounds was recorded using the Hamamatsu FDSS 6000 reader (Hamamatsu Photonics K.K., Japan).
Analysis and Expression of Results
(§6) Results were expressed as Relative Light Units (RLU). […] EC50, Hill slope and % Emax values are reported.
(§7) Key Aspects of Method • 1. Assay performed on CHO-K1 cells expressing the transfected, cloned human ghrelin receptor (hGHS-R1a) and Gα16. • 2. Suspended cells incubated O/N with coelenterazine. • 3. Stimulation of hGHS-R1a activates Gα16, causing intercellular Ca2+ release which ultimately leads to the oxidation of coelenterazine and the emission of a quantitative luminescent signal. • 4. Ghrelin was used as the positive control. • 5.

[3] = biological target: T2, human growth hormone secretagogue receptor (hGHS-R1a) (Homo sapiens, UniProt Q92847); assay: Competitive radioligand binding assay (ghrelin receptor), [125I]-ghrelin displacement
T2 construct: purchased PerkinElmer BioSignal #RBHGHSM, lot#1887; host or cells: HEK-293, stably transfected
T2 sequence (Q92847 whole entry): as above
Method: The competitive binding assay at the human growth hormone secretagogue receptor (hGHS-R1a) was carried out analogously to assays described in the literature.
Multiscreen Harvest plates-GF/C (Millipore, #MAHFC1H60) • 4. […] Bottom seal (Millipore, #MATAH0P00) • 7. […] Binding Buffer: 25 mM Hepes (pH 7.4), 1 mM CaCl2, 5 mM MgCl2, 2.5 mM EDTA, 0.4% BSA Assay Volumes
Competition experiments were performed in a 300 μl filtration assay format. • 1. 220 μL of membranes diluted in binding buffer • 2. 40 μL of compound diluted in binding buffer • 3. […] Compound Handling
Compounds were provided frozen on dry ice at a stock concentration of 10 mM diluted in 100% DMSO and stored at −80° C. until the day of testing. On the test day, compounds were allowed to thaw at rt O/N and then diluted in assay buffer according to the desired test concentrations.
Plates were sealed with TopSeal-A, vortexed gently and incubated at rt for 30 min. The reaction was arrested by filtering samples through Multiscreen Harvest plates (pre-soaked in 0.5% polyethyleneimine) using a Tomtec Harvester, washed 9 times with 500 μL of cold 50 mM Tris-HCl (pH 7.4, 4° C.), and then plates were air-dried in a fumehood for 30 min. A bottom seal was applied to the plates prior to the addition of 25 μL of MicroScint-0 to each well. […] Results were expressed as counts per minute (cpm).
Data were analyzed by GraphPad Prism (GraphPad Software, San Diego, Calif.) using a variable slope non-linear regression analysis.
Compound structures for Tables 3A, 3B and 3D are presented with the various groups as defined for the general structure of formula I. For Tables 3B and 3D, in all entries, m, n and p are 0; X, Z1 and Z2 are each NH. For Table 3B, R1 is H for all entries. The tethers (T) are illustrated with the bonding to X and Z2 as indicated. The compounds themselves are shown for Table 3C.
• 1. […] Key Aspects of Method • 1. […] Results

[4] = test system: gastric emptying in fasted rats; assay: Gastric emptying in fasted rats (phenol red methylcellulose meal); assay type: in vivo, rat (Wistar)
Method: To examine the effects of compounds of the invention in a model for gastroparesis, compounds were evaluated for possible effects on gastric emptying in fasted rats.
GHRP-6 and test samples were dissolved in vehicle of 9% HPBCD/0.9% NaCl. Immediately following oral administration of methylcellulose (2%) containing phenol red (0.05%) (2 mL/rat), test substances or vehicle (9% HPBCD/0.9% NaCl) were each administered intravenously (i.v.) at a dosing volume of 5 mL/kg.
Male Wistar rats were provided by LASCO (A Charles River Licensee Corporation, Taiwan). Space allocation for 6 animals was 45×23×15 cm. Animals were housed in APEC® cages and maintained in a controlled temperature (22° C.-24° C.) and humidity (60%-80%) environment with 12 h light, 12 h dark cycles for at least one week in the laboratory prior to being used. Free access to standard lab chow for rats (Lab Diet, Rodent Diet, PMI Nutrition International, USA) and tap water was granted. All aspects of this work including housing, experimentation and disposal of animals were performed in general accordance with the Guide for the Care and Use of Laboratory Animals (National Academy Press, Washington, D.C., 1996).
Test substances were each administered intravenously to a group of 5 O/N-fasted Wistar derived male rats weighing 200±20 g immediately after methylcellulose (2%) containing phenol red (0.05%) was administered orally at 2 mL/animal. […] Following protein precipitation by 20% trichloroacetic acid (0.5 mL) and re-alkalization of the supernatant with 0.1 N NaOH, total phenol red remaining in the stomach was determined by a colorimetric method at 560 nm. A 30 percent or more (≧30%) increase in gastric emptying, detected as the decrease in phenol red concentration in the stomach relative to the vehicle control group, is considered significant.
• 1. […] Total phenol red remaining in the stomach was quantified by a colorimetric method at 560 nm. • 5. A >30% increase in gastric emptying, detected based on the phenol red concentration in comparison to the control group, is considered significant. […]

[5] = biological target: T1, human ghrelin receptor (hGHS-R1a); assay: cell-based
Source text: as §1, §2, §3, §4, §5
Analysis and Expression of Results
as §6, §7

[6] = Table 3C, binding activity at the human ghrelin receptor, class symbols, read-out: Ki
[7] = Table 4, binding at human ghrelin receptor, TFA salts unless otherwise noted, read-out: Ki
[8] = binding activity at the human ghrelin receptor, [125I]-ghrelin displacement, hGHS-R1a/HEK-293 membranes, read-out: Ki
[9] = [125I]-ghrelin displacement, hGHS-R1a HEK-293 membranes, read-out: Binding Activity at the Human Ghrelin Receptor (Ki)
[10] = Table 3B, binding at human ghrelin receptor, [125I]-ghrelin displacement, read-out: Ki

CCC[C@H]1C(=O)N(C)[C@H](C)C(=O)N[C@H](Cc2ccccc2)C(=O)NCCCc2ccccc2O[C@H](C)CN1C(=O)OC(C)(C)C
ring closure, yield of all isomers [1]: 80%

C[C@H]1NC(=O)C2(CCCC2)NCCOc2ccccc2C=CCNC(=O)[C@H](Cc2cccc(Cl)c2)NC1=O (stereo in doubt) [compound 351]
pEC50 [2]: 7.00 to 9.00 | pKi [3, 6]: 7.00 to 8.00 | pKi [3, 7]: 7.00 to 8.00

O=C1NC/C=C/c2ccccc2OCCNC2(CCCC2)C(=O)NC2(CCCC2)C(=O)N[C@H]1Cc1ccccc1 [compound 18]
pEC50 [2]: 7.00 to 9.00 | pKi [3, 6]: 7.00 to 8.00 | pKi [3, 7]: 7.00 to 8.00 | pKi [3, 8]: 7.00 to 8.00

CCC(C)C1NCCOc2ccccc2CCCNC(=O)C(Cc2ccc(Cl)cc2)NC(=O)C(C)N(C)C1=O (stereo not drawn) [compound 25]
gastric emptying ([4]; 30 μg/kg): demonstrated gastric emptying | increase in gastric emptying relative to the vehicle control group ([4]; 100 μg/kg i.v., fasted rats, 15 min): 39% | pEC50 [2]: 7.00 to 9.00

CCC(C)C1NCCOc2ccccc2C=CCNC(=O)C(Cc2ccccc2)NC(=O)C(C)N(C)C1=O (stereo not drawn) [compound 40]
pEC50 [5]: 7.00 to 9.00 | pKi [3, 7]: 8.00 to 10.00 | pKi [3, 8]: 8.00 to 10.00

CC(C)CC1NCCOc2ccccc2C=CCNC(=O)C(CC(C)C)NC(=O)C2(CCCC2)NC1=O (stereo not drawn) [compound 47]
pEC50 [5]: 7.00 to 9.00 | pKi [3, 7]: 6.00 to 7.00 | pKi [3, 8]: 5.00 to 7.00

CC(C)C1NCCOc2ccccc2C=CCNC(=O)C(Cc2ccccc2)NC(=O)C2(CCOCC2)NC1=O (stereo not drawn) [compound 140]
pEC50 [5]: 6.00 to 7.00 | pKi [3, 7]: 6.00 to 7.00 | pKi [3, 8]: 5.00 to 7.00

COc1ccc(CC2NC(=O)C3(CCCC3)NC(=O)C(CC(C)C)NCCOc3ccccc3C=CCNC2=O)cc1 (stereo not drawn) [compound 156]
pEC50 [5]: 7.00 to 9.00 | pKi [3, 7]: 7.00 to 8.00 | pKi [3, 8]: 7.00 to 8.00

CCC(C)C1NCCOc2ccccc2CCCNC(=O)C(Cc2cccnc2)NC(=O)C(C)N(C)C1=O (stereo not drawn) [compound 170]
pEC50 [5]: 6.00 to 7.00 | pKi [3, 7]: 7.00 to 8.00 | pKi [3, 8]: 7.00 to 8.00

CCC(C)C1NCCOc2ccccc2CCCNC(=O)C(CC(C)C)NC(=O)C(C)N(C)C1=O (stereo not drawn) [compound 176]
pEC50 [5]: 7.00 to 9.00 | pKi [3, 7]: 7.00 to 8.00 | pKi [3, 8]: 7.00 to 8.00

CCC(C)C1NCCOc2cccnc2CCCNC(=O)C(Cc2ccccc2)NC(=O)C(C)N(C)C1=O (stereo not drawn) [compound 177]
pEC50 [5]: 7.00 to 9.00 | pKi [3, 7]: 7.00 to 8.00 | pKi [3, 8]: 7.00 to 8.00

CCC(C)C1NCCOCC=CCCNC(=O)C(Cc2ccccc2)NC(=O)C(C)N(C)C1=O (stereo not drawn) [compound 186]
pEC50 [5]: 6.00 to 7.00 | pKi [3, 7]: 6.00 to 7.00 | pKi [3, 8]: 5.00 to 7.00

CCC(C)C1NCCCc2ccccc2C=CCCNC(=O)C(Cc2ccccc2)NC(=O)C(C)N(C)C1=O (stereo not drawn) [compound 191]
pEC50 [5]: 6.00 to 7.00 | pKi [3, 7]: 6.00 to 7.00 | pKi [3, 9]: 5.00 to 7.00

CCC(C)C1NCCCc2ccccc2CCCCNC(=O)C(Cc2ccccc2)NC(=O)C(C)N(C)C1=O (stereo not drawn) [compound 192]
pEC50 [5]: 6.00 to 7.00 | pKi [3, 7]: 7.00 to 8.00 | pKi [3, 9]: 7.00 to 8.00

CCC(C)C1NCc2ccccc2CC=CCNC(=O)C(Cc2ccccc2)NC(=O)C(C)N(C)C1=O (stereo not drawn) [compound 193]
pEC50 [5]: 6.00 to 7.00 | pKi [3, 7]: 6.00 to 7.00 | pKi [3, 9]: 5.00 to 7.00

CCC(C)C1NCc2ccccc2CC=CCCNC(=O)C(Cc2ccccc2)NC(=O)C(C)N(C)C1=O (stereo not drawn) [compound 195]
pEC50 [5]: 7.00 to 9.00 | pKi [3, 7]: 7.00 to 8.00 | pKi [3, 9]: 7.00 to 8.00

CCC(C)C1NCCOc2ccc(C(=O)O)cc2CCCNC(=O)C(Cc2ccccc2)NC(=O)C(C)N(C)C1=O (stereo not drawn) [compound 197]
pEC50 [5]: < 6.00 | pKi [3, 7]: 6.00 to 7.00 | pKi [3, 9]: 5.00 to 7.00

CCC(C)C1NCCc2ccccc2CCCNC(=O)C(Cc2ccccc2)NC(=O)C(C)N(C)C1=O (stereo not drawn) [compound 214]
pEC50 [5]: 6.00 to 7.00 | pKi [3, 7]: 6.00 to 7.00 | pKi [3, 9]: 5.00 to 7.00

CC1C(=O)NC(Cc2c(F)c(F)c(F)c(F)c2F)C(=O)NCCCc2ccccc2OCCNC(C2CC2)C(=O)N1C (stereo not drawn) [compound 318]
pEC50 [5]: 7.00 to 9.00 | pKi [3, 10]: 8.00 to 10.00 | pKi [3, 7]: 8.00 to 10.00

CC1C(=O)NC(Cc2ccc(F)cc2)C(=O)NCC#Cc2ccccc2OCCNC(C2CC2)C(=O)N1C (stereo not drawn) [compound 354]
pEC50 [5]: 7.00 to 9.00 | pKi [3, 10]: > 7.00 | pKi [3, 7]: 7.00 to 8.00

CC1C(=O)NC(Cc2ccc(F)cc2)C(=O)NCCCc2cc(NS(C)(=O)=O)ccc2OCCNC(C2CC2)C(=O)N1C (stereo not drawn) [compound 374]
pEC50 [5]: 7.00 to 9.00 | pKi [3, 10]: > 7.00 | pKi [3, 7]: 7.00 to 8.00

CCC(C)C1NCCOc2ccc(F)cc2CCCNC(=O)C(Cc2cccc(Cl)c2)NC(=O)C2(CCCC2)NC1=O (stereo not drawn) [compound 382]
pEC50 [5]: 6.00 to 7.00 | pKi [3, 10]: > 7.00 | pKi [3, 7]: 7.00 to 8.00

CCC(C)C1NCCOc2ccccc2C2CC2CNC(=O)C(Cc2cccc(Cl)c2)NC(=O)C2(CCCC2)NC1=O (stereo not drawn) [compound 388]
pEC50 [5]: 7.00 to 9.00 | pKi [3, 10]: 8.00 to 10.00 | pKi [3, 7]: 8.00 to 10.00

CC1COc2ccccc2CCCNC(=O)C(Cc2ccc(F)cc2)NC(=O)C(C)N(C)C(=O)C(C2CC2)N1 (stereo not drawn) [compound 394]
pEC50 [5]: 6.00 to 7.00 | pKi [3, 10]: 8.00 to 10.00 | pKi [3, 7]: 8.00 to 10.00

CCN(CC)CCNC(=O)c1cc(Cl)c(N)cc1OC [metoclopramide, Metoclopramide, reference compound]
gastric emptying of a solid meal in naïve rat ([4]; i.v. immediately after meal, 15 min): significant gastric emptying
